Experimental data: patent US20240360114A1 (SIRONAX LTD., priority 2021, published 2024)

Test system: HT-1080 cells
Assay: HT-1080 cell viability assay (ferroptosis induced by RSL3, Cell Titer-Glo)
Format: cell-based
Details: Homo sapiens, HT-1080, 20 h, ferroptosis inducer RSL3, 20 hours, ferroptosis inhibitory activity, Table 2
How it was run: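 EC50 fitted by sigmoidal dose-response regression on luminescent viability data normalized to untreated cells. Compounds ran as a 10-point, 3-fold series from 1.1 μM alongside RSL3 for 20 hours, after overnight seeding.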

Row | EC50 | SMILES
1 | 0.1 to 100 nM | NNC(=O)C1CC2(CC(Nc3cnc(N4CCC(C(F)(F)F)CC4)nc3)C2)C1 (stereo not shown) [Compound 427, 6-((2-(4-(trifluoromethyl)piperidin-1-yl)pyrimidin-5-yl)amino)spiro[3.3]heptane-2-carbohydrazide]
2 | 0.1 to 100 nM | Cc1nc(N2CC(C)OC(C)C2)ccc1NC1CCC(CCCN)CC1 (stereo not shown) [Compound 534, N-(4-(3-aminopropyl)cyclohexyl)-6-(2,6-dimethylmorpholino)-2-methylpyridin-3-amine]
3 | 0.1 to 100 nM | CC(C)C1CCN(c2ncc(NC3CC4(CC(NCC(F)(F)F)C4)C3)cn2)CC1 (stereo not shown) [Compound 414, N2-(2-(4-isopropylpiperidin-1-yl)pyrimidin-5-yl)-N6-(2,2,2-trifluoroethyl)spiro[3.3]heptane-2,6-diamine]
4 | 0.1 to 100 nM | CC[C@@H]1CN(c2ccc(NC3CC4(CC(N)C4)C3)c(C)n2)C[C@H](CC)O1 (stereo partly shown) [Compound 549]
5 | 0.1 to 100 nM | NC1C[C@@H]2CC(Nc3ccc(N4CCC(C(F)(F)F)CC4)cc3)C[C@@H]2C1 (stereo partly drawn) [Compound 363, (3aR, 6aS)-N2-(4-(4-(trifluoromethyl)piperidin-1-yl)phenyl) octahydropentalene-2,5-diamine]
6 | 0.1 to 100 nM | COc1nc(N2C[C@@H](C)O[C@@H](C)C2)ccc1NC[C@H]1CC[C@H](N)CC1 [Compound 511, N-(((1r,4R)-4-aminocyclohexyl)methyl)-6-((2S,6R)-2,6-dimethylmorpholino)-2-methoxypyridin-3-amine]
7 | 0.1 to 100 nM | CC(C)C1CCN(c2ncc(NC3CC4(CC(NCC(F)F)C4)C3)cn2)CC1 (stereo not shown) [Compound 413, N2-(2,2-difluoroethyl)-N6-(2-(4-isopropylpiperidin-1-yl)pyrimidin-5-yl)spiro[3.3]heptane-2,6-diamine]
8 | 0.1 to 100 nM | CC1(C)CCCc2cc(NC3CCC(N)CC3)ccc21 (stereo not shown) [Compound 337A, 1-N-(5,5-dimethyl-5,6,7,8-tetrahydronaphthalen-2-yl)cyclohexane-1,4-diamine]
9 | 0.1 to 100 nM | CC1CCN(c2ncc(NC[C@H]3CC[C@H](N)CC3)cc2C(F)(F)F)CC1 [Compound 396, N-(((1r,4r)-4-aminocyclohexyl)methyl)-6-(4-methylpiperidin-1-yl)-5-(trifluoromethyl)pyridin-3-amine]
10 | 100 to 1000 nM | CCN1C(C)CN(c2ccc(NC[C@H]3CC[C@H](N)CC3)cc2)CC1C (stereo partly shown) [Compound 532, N-(((1r,4r)-4-aminocyclohexyl)methyl)-4-(4-ethyl-3,5-dimethylpiperazin-1-yl)aniline]
11 | 0.1 to 100 nM | COC1(C)CCN(c2ccc(NC3CC4(CC(N)C4)C3)c(C)n2)CC1 (stereo not shown) [Compound 536, N2-(6-(4-methoxy-4-methylpiperidin-1-yl)-2-methylpyridin-3-yl)spiro[3.3]heptane-2,6-diamine]
12 | 0.1 to 100 nM | CC(C)C1CCN(c2ncc(NC[C@H]3CC[C@@H](N)CC3)cn2)CC1 [Compound 361, N-(((1s,4s)-4-aminocyclohexyl)methyl)-2-(4-isopropylpiperidin-1-yl)pyrimidin-5-amine]
13 | 0.1 to 100 nM | CN(C)C(=O)C1CCC(Nc2ccc(N3CCC(C(F)(F)F)CC3)cc2)CC1 (stereo not shown) [Compound 366, N,N-dimethyl-4-((4-(4-(trifluoromethyl)piperidin-1-yl)phenyl)amino)cyclohexane-1-carboxamide]
14 | 0.1 to 100 nM | Cc1nc(N2CC(C)N(C(=O)C(F)(F)F)C(C)C2)ccc1NC1CC2(CC(N)C2)C1 (stereo not shown) [Compound 554, 1-(4-(5-((6-aminospiro[3.3]heptan-2-yl)amino)-6-methylpyridin-2-yl)-2,6-dimethylpiperazin-1-yl)-2,2,2-trifluoroethan-1-one]
15 | 1000 to 10000 nM | CC(C)C1CCN(c2cnc(NC3CCC(N)CC3)nc2)CC1 (stereo not shown) [Compound 400, N1-(5-(4-isopropylpiperidin-1-yl)pyrimidin-2-yl)cyclohexane-1,4-diamine]
16 | 0.1 to 100 nM | CN[C@H]1CC[C@H](CNc2ccc(N3CC(C)OC(C)C3)cc2)CC1 (stereo partly shown) [Compound 420, 4-(2,6-dimethylmorpholino)-N-(((1r,4r)-4-(methylamino)cyclohexyl)methyl)aniline]

The next lines start with the compound.

Row | SMILES | EC50
17 | CC1CCN(c2ccc(NC3CCC(N)CC3)cc2C(F)(F)F)CC1 (stereo not shown) [Compound 53A, N1-(4-(4-methylpiperidin-1-yl)-3-(trifluoromethyl)phenyl)cyclohexane-1,4-diamine] | 0.1 to 100 nM
18 | CC(C)(C)c1ccc(NC2CCCC(N)C2)cc1 (single isomer, unassigned) [Compound 149A, N1-(4-(tert-butyl)phenyl)cyclohexane-1,3-diamine] | 100 to 1000 nM
19 | CN(C)C(=O)C1CCC(Nc2ccc(C3CCC(C)(C)CC3)cc2)CC1 (stereo not shown) [Compound 89, 4-((4-(4,4-dimethylcyclohexyl)phenyl)amino)-N,N-dimethylcyclohexane-1-carboxamide] | 0.1 to 100 nM
20 | CC1(C)CCC(c2ccc(NCCCCN)cc2)CC1 [Compound 225, N1-(4-(4,4-dimethylcyclohexyl)phenyl) butane-1,4-diamine] | 0.1 to 100 nM
21 | CCc1ccc(NC2CCC(N)CC2)cn1 (stereo not shown) [Compound 208, N1-(6-ethylpyridin-3-yl)cyclohexane-1,4-diamine] | 1000 to 10000 nM
22 | CC(C)(C)c1ccc(NC2CCCCC2N)cc1 (stereo not shown) [Compound 152, N1-(4-(tert-butyl)phenyl)cyclohexane-1,2-diamine] | 100 to 1000 nM
23 | CCCCCc1ccc(NC2CCC(N)CC2)cc1 (stereo not shown) [Compound 136, N1-(4-pentylphenyl)cyclohexane-1,4-diamine] | 0.1 to 100 nM
24 | CC1(C)CCN(c2ccc(NC3CCC(N)CC3)cc2C(F)(F)F)CC1 (stereo not shown) [Compound 55, N1-(4-(4,4-dimethylpiperidin-1-yl)-3-(trifluoromethyl)phenyl)cyclohexane-1,4-diamine] | 0.1 to 100 nM
25 | NC1CCC(Nc2ccc(C3CCCC3)cc2)CC1 (single isomer, unassigned) [Compound 139A, N1-(4-cyclopentylphenyl)cyclohexane-1,4-diamine] | 0.1 to 100 nM
26 | CN(C)C1CCC(Nc2ccc(C(C)(C)C)cc2)CC1 (single isomer, unassigned) [Compound 193A, N1-(4-(tert-butyl)phenyl)-N4,N4-dimethylcyclohexane-1,4-diamine] | 100 to 1000 nM
27 | NC1CCC(Nc2ccc(N3CCC(C(F)(F)F)CC3)cc2F)CC1 (stereo not shown) [Compound 71, N1-(2-fluoro-4-(4-(trifluoromethyl)piperidin-1-yl)phenyl)cyclohexane-1,4-diamine] | 0.1 to 100 nM
28 | CC(C)(C)c1ccc(NC2CCC(CCN)CC2)cc1 (single isomer, unassigned) [Compound 200A, N-(4-(2-aminoethyl)cyclohexyl)-4-(tert-butyl)aniline] | 0.1 to 100 nM
29 | NC1CCC(Nc2ccc(CC(F)(F)F)cc2)CC1 (stereo not shown) [Compound 223, N1-(4-(2,2,2-trifluoroethyl)phenyl)cyclohexane-1,4-diamine] | 1000 to 10000 nM
30 | CC1(C)CCC(c2ccc(NCCN3CCCC3)cc2)CC1 [Compound 101, 4-(4,4-dimethylcyclohexyl)-N-(2-(pyrrolidin-1-yl)ethyl)aniline] | 0.1 to 100 nM
31 | NC1CCC(Nc2ccc(C3CCC(C(F)(F)F)CC3)cc2)CC1 (stereo not shown) [Compound 280, N1-(4-(4-(trifluoromethyl)cyclohexyl)phenyl)cyclohexane-1,4-diamine] | 0.1 to 100 nM
32 | CNC1CCC(Nc2ccc(C(C)(C)C)cc2)C1 (stereo not shown) [Compound 194, N1-(4-(tert-butyl)phenyl)-N3-methylcyclopentane-1,3-diamine] | 100 to 1000 nM
33 | NC1CCC(Nc2ccc(C3CCC(F)(F)CC3)cc2)CC1 (stereo not shown) [Compound 251A, N1-(4-(4.4-difluorocyclohexyl)phenyl)cyclohexane-1,4-diamine] | 0.1 to 100 nM
34 | CCc1ccc(NC2CCC(N)CC2)cc1 (stereo not shown) [Compound 125, N1-(4-ethylphenyl)cyclohexane-1,4-diamine] | 100 to 1000 nM
35 | Cc1cc(N2CCC(C(F)(F)F)CC2)c(C)cc1NC1CCC(N)CC1 (stereo not shown) [Compound 59, N1-(2,5-dimethyl-4-(4-(trifluoromethyl)piperidin-1-yl)phenyl)cyclohexane-1,4-diamine] | 0.1 to 100 nM

Same assay, conditions: Homo sapiens, HT-1080, 20 h, ferroptosis inducer RSL3, 20 hours, ferroptosis inhibitory activity, Table 3

Row | EC50 | SMILES
36 | 0.1 to 100 nM | C[C@@H]1CN(c2ccc3cc(NCC[C@H]4C[C@H](N)C4)ccc3c2)C[C@H](C)O1 [Compound 583, N-(2-((1r,3S)-3-aminocyclobutyl)ethyl)-6-((2S,6R)-2,6-dimethylmorpholino) naphthalen-2-amine]
37 | 0.1 to 100 nM | CCCc1nc(N2C[C@@H](C)O[C@@H](C)C2)ccc1NC1CC2(CC(N)C2)C1 (stereo partly drawn) [Compound 609, N2-(6-((2S, 6R)-2,6-dimethylmorpholino)-2-propylpyridin-3-yl)spiro[3.3]heptane-2,6-diamine]
38 | 0.1 to 100 nM | Cc1nc(N2CCC(C)(C)CC2)ccc1NC1CC2(CC(N)C2)C1 (stereo not shown) [Compound 602, N2-(6-(4,4-dimethylpiperidin-1-yl)-2-methylpyridin-3-yl)spiro[3.3]heptane-2,6-diamine]
39 | 0.1 to 100 nM | N[C@H]1CC[C@H](CNc2ccc(N3CCN(CC(F)(F)F)CC3)cc2F)CC1 [Compound 586, N-(((1r,4r)-4-aminocyclohexyl)methyl)-2-fluoro-4-(4-(2,2,2-trifluoroethyl)piperazin-1-yl)aniline]
40 | 0.1 to 100 nM | NC1CC2(C1)CC(Nc1ccc3cc(N4CCC(O)(C(F)(F)F)CC4)ccc3c1)C2 (stereo not shown) [Compound 620, 1-(6-((6-aminospiro[3.3]heptan-2-yl)amino)naphthalen-2-yl)-4-(trifluoromethyl)piperidin-4-ol]

Row | SMILES | EC50
41 | Cc1nc(N2CC(C)N(C(=O)C(F)(F)F)C(C)C2)ccc1NC1CC2CCC(C1)N2 (stereo not shown) [Compound 642, 1-(4-(5-((8-azabicyclo[3.2.1]octan-3-yl)amino)-6-methylpyridin-2-yl)-2,6-dimethylpiperazin-1-yl)-2,2,2-trifluoroethan-1-one] | 0.1 to 100 nM

Same assay, conditions: Homo sapiens, ferroptosis inducer RSL3, 20 hours, ferroptosis inhibitory activity, Table 2

Row | SMILES | EC50
42 | CCCCN(CCCC)CCNc1ccc(C2CCCCC2)cc1 [Compound 173, N1,N1-dibutyl-N2-(4-cyclohexylphenyl)ethane-1,2-diamine] | 100 to 1000 nM

Same assay, conditions: ferroptosis inducer RSL3, 20 hours, ferroptosis inhibitory activity, Table 2

Row | EC50 | SMILES
43 | 100 to 1000 nM | CC1CC(N)CCC1Nc1ccc(C(C)(C)C)cc1 (single isomer, unassigned) [Compound 252A, N1-(4-(tert-butyl)phenyl)-2-methylcyclohexane-1,4-diamine]
